In ChEMBL document CHEMBL3885861, “Open TG-GATES”:

Species on record: Rattus norvegicus
Assay: Open TG-GATES - Regimen: Single
Assay type: toxicity, organism-based, Sprague-Dawley
Design: regimen Single, gender Male, age 6 weeks
Details: in vivo, po, route gavage; for APTT / Bas / Eos / Fbg / Hb / Ht / Lym / MCH / MCHC / MCV / Mono / Neu / PT / Plat / RBC / Ret / WBC: tissue Blood; for KIDNEY_L / KIDNEY_R / KIDNEY_TOTAL: tissue Kidney; for LIVER: tissue Liver; for A/G / ALP / ALT / AST / BUN / CRE / Ca / Cl / DBIL / GLC / IP / K / LDH / Na / PL / RALB / TBIL / TC / TG / TP / gamma-GTP: tissue Plasma
[1] = 250 mg/kg, 3 h, dose level Middle
[2] = 250 mg/kg, 6 h, dose level Middle
[3] = 250 mg/kg, 9 h, dose level Middle
[4] = 250 mg/kg, 24 h, dose level Middle
[5] = 750 mg/kg, 3 h, dose level High
[6] = 750 mg/kg, 6 h, dose level High
[7] = 750 mg/kg, 9 h, dose level High
[8] = 750 mg/kg, 24 h, dose level High

## CN(C/C=C/C#CC(C)(C)C)Cc1cccc2ccccc12 [TERBINAFINE]
[1]
  TERMINAL_BW: 225.8 g
  APTT: 20 s
  Bas: 0.6%
  Eos: 0.8%
  Fbg: 215.8 mg/dL
  Hb: 13.2 g/dL
  Ht: 39.2%
  Lym: 79.4%
  MCH: 21.8 pg
  MCHC: 33.7%
  MCV: 64.7 fL
  Mono: 2.2%
  Neu: 16.6%
  PT: 12.2 s
  Plat: 125.2 x10_4/uL
  RBC: 606.8 x10_4/ul
  Ret: 7.2%
  WBC: 90.5 x10_2/uL
  KIDNEY_L: 1 g
  KIDNEY_R: 1 g
  KIDNEY_TOTAL: 2 g
  LIVER: 10.4 g
  A/G: 1.7
  ALP: 909.4 IU/L
  ALT: 42.4 IU/L
  AST: 72.8 IU/L
  BUN: 12 mg/dL
  CRE: 0.4 mg/dL
  Ca: 10.6 mg/dL
  Cl: 103.6 meq/L
  DBIL: 0.084 mg/dL
  GLC: 213 mg/dL
  IP: 9.1 mg/dL
  K: 3.9 meq/L
  LDH: 166.8 IU/L
  Na: 141.4 meq/L
  PL: 123.8 mg/dL
  RALB: 3.4 g/dL
  TBIL: 0.1 mg/dL
  TC: 65 mg/dL
  TG: 43.8 mg/dL
  TP: 5.4 g/dL
  gamma-GTP: 1 IU/L
[2]
  TERMINAL_BW: 221.8 g
  APTT: 18.1 s
  Bas: 0.4%
  Eos: 0.8%
  Fbg: 220.6 mg/dL
  Hb: 13.3 g/dL
  Ht: 39.5%
  Lym: 74%
  MCH: 21.5 pg
  MCHC: 33.7%
  MCV: 64 fL
  Mono: 2.4%
  Neu: 22.2%
  PT: 12.3 s
  Plat: 110.3 x10_4/uL
  RBC: 617.4 x10_4/ul
  Ret: 6.8%
  WBC: 90.7 x10_2/uL
  KIDNEY_L: 1 g
  KIDNEY_R: 1 g
  KIDNEY_TOTAL: 2 g
  LIVER: 9.6 g
  A/G: 1.8
  ALP: 842.8 IU/L
  ALT: 36 IU/L
  AST: 70.6 IU/L
  BUN: 11.4 mg/dL
  CRE: 0.4 mg/dL
  Ca: 10.6 mg/dL
  Cl: 102.8 meq/L
  DBIL: 0.086 mg/dL
  GLC: 204 mg/dL
  IP: 9.7 mg/dL
  K: 4 meq/L
  LDH: 156 IU/L
  Na: 141.4 meq/L
  PL: 132.2 mg/dL
  RALB: 3.5 g/dL
  TBIL: 0.2 mg/dL
  TC: 71.8 mg/dL
  TG: 35.2 mg/dL
  TP: 5.4 g/dL
  gamma-GTP: 1 IU/L
[3]
  TERMINAL_BW: 220.9 g
  APTT: 18.2 s
  Bas: 0.6%
  Eos: 1%
  Fbg: 211.6 mg/dL
  Hb: 12.8 g/dL
  Ht: 38.5%
  Lym: 77.8%
  MCH: 20.8 pg
  MCHC: 33.3%
  MCV: 62.3 fL
  Mono: 2.4%
  Neu: 18.2%
  PT: 12.5 s
  Plat: 114.8 x10_4/uL
  RBC: 618 x10_4/ul
  Ret: 6.3%
  WBC: 74.3 x10_2/uL
  KIDNEY_L: 1 g
  KIDNEY_R: 1 g
  KIDNEY_TOTAL: 2 g
  LIVER: 9.1 g
  A/G: 1.6
  ALP: 845 IU/L
  ALT: 31.4 IU/L
  AST: 67.6 IU/L
  BUN: 12 mg/dL
  CRE: 0.4 mg/dL
  Ca: 10.3 mg/dL
  Cl: 103.4 meq/L
  DBIL: 0.074 mg/dL
  GLC: 198.2 mg/dL
  IP: 10.8 mg/dL
  K: 4.1 meq/L
  LDH: 153 IU/L
  Na: 141.8 meq/L
  PL: 122 mg/dL
  RALB: 3.4 g/dL
  TBIL: 0.1 mg/dL
  TC: 64 mg/dL
  TG: 26.6 mg/dL
  TP: 5.5 g/dL
  gamma-GTP: 1.4 IU/L
[4]
  TERMINAL_BW: 237.1 g
  APTT: 18.5 s
  Bas: 0.6%
  Eos: 1%
  Fbg: 223.8 mg/dL
  Hb: 13.4 g/dL
  Ht: 39.8%
  Lym: 79.2%
  MCH: 21.4 pg
  MCHC: 33.8%
  MCV: 63.3 fL
  Mono: 3.2%
  Neu: 15.6%
  PT: 12 s
  Plat: 127.3 x10_4/uL
  RBC: 628.2 x10_4/ul
  Ret: 6.6%
  WBC: 91.5 x10_2/uL
  KIDNEY_L: 1.1 g
  KIDNEY_R: 1.1 g
  KIDNEY_TOTAL: 2.2 g
  LIVER: 11.9 g
  A/G: 1.6
  ALP: 1068.6 IU/L
  ALT: 46.4 IU/L
  AST: 84.6 IU/L
  BUN: 15.4 mg/dL
  CRE: 0.4 mg/dL
  Ca: 10.7 mg/dL
  Cl: 103.2 meq/L
  DBIL: 0.098 mg/dL
  GLC: 191.2 mg/dL
  IP: 8.6 mg/dL
  K: 3.9 meq/L
  LDH: 193.8 IU/L
  Na: 141.4 meq/L
  PL: 135 mg/dL
  RALB: 3.4 g/dL
  TBIL: 0.2 mg/dL
  TC: 72.4 mg/dL
  TG: 84 mg/dL
  TP: 5.5 g/dL
  gamma-GTP: 1.6 IU/L
[5]
  TERMINAL_BW: 226.5 g
  APTT: 19.1 s
  Bas: 0.4%
  Eos: 0.8%
  Fbg: 220.4 mg/dL
  Hb: 12.9 g/dL
  Ht: 38.4%
  Lym: 76.8%
  MCH: 21.1 pg
  MCHC: 33.5%
  MCV: 63 fL
  Mono: 1.8%
  Neu: 19.8%
  PT: 12.3 s
  Plat: 120 x10_4/uL
  RBC: 610.2 x10_4/ul
  Ret: 7.2%
  WBC: 85.9 x10_2/uL
  KIDNEY_L: 1 g
  KIDNEY_R: 1 g
  KIDNEY_TOTAL: 2 g
  LIVER: 9.8 g
  A/G: 1.7
  ALP: 978.4 IU/L
  ALT: 35.6 IU/L
  AST: 69.2 IU/L
  BUN: 9.8 mg/dL
  CRE: 0.4 mg/dL
  Ca: 10.6 mg/dL
  Cl: 103 meq/L
  DBIL: 0.08 mg/dL
  GLC: 204.6 mg/dL
  IP: 9.1 mg/dL
  K: 3.7 meq/L
  LDH: 180.8 IU/L
  Na: 141.6 meq/L
  PL: 128.6 mg/dL
  RALB: 3.4 g/dL
  TBIL: 0.1 mg/dL
  TC: 76.4 mg/dL
  TG: 36 mg/dL
  TP: 5.5 g/dL
  gamma-GTP: 1 IU/L
[6]
  TERMINAL_BW: 226.5 g
  APTT: 18 s
  Bas: 0.6%
  Eos: 0.8%
  Fbg: 217.6 mg/dL
  Hb: 12.8 g/dL
  Ht: 37.9%
  Lym: 77.6%
  MCH: 21.6 pg
  MCHC: 33.8%
  MCV: 63.8 fL
  Mono: 3%
  Neu: 18%
  PT: 12.2 s
  Plat: 124.3 x10_4/uL
  RBC: 595 x10_4/ul
  Ret: 7.2%
  WBC: 79 x10_2/uL
  KIDNEY_L: 1 g
  KIDNEY_R: 1 g
  KIDNEY_TOTAL: 2 g
  LIVER: 9.7 g
  A/G: 1.7
  ALP: 823.4 IU/L
  ALT: 35.4 IU/L
  AST: 70 IU/L
  BUN: 12.4 mg/dL
  CRE: 0.4 mg/dL
  Ca: 10.5 mg/dL
  Cl: 103.2 meq/L
  DBIL: 0.082 mg/dL
  GLC: 206.2 mg/dL
  IP: 9.6 mg/dL
  K: 3.9 meq/L
  LDH: 174.2 IU/L
  Na: 141 meq/L
  PL: 121.2 mg/dL
  RALB: 3.5 g/dL
  TBIL: 0.1 mg/dL
  TC: 68.2 mg/dL
  TG: 36.6 mg/dL
  TP: 5.5 g/dL
  gamma-GTP: 0.8 IU/L
[7]
  TERMINAL_BW: 225.4 g
  APTT: 18.8 s
  Bas: 0.6%
  Eos: 1%
  Fbg: 221.6 mg/dL
  Hb: 12.8 g/dL
  Ht: 38.2%
  Lym: 73.2%
  MCH: 21.3 pg
  MCHC: 33.6%
  MCV: 63.6 fL
  Mono: 2.6%
  Neu: 22.6%
  PT: 12.3 s
  Plat: 114 x10_4/uL
  RBC: 601.8 x10_4/ul
  Ret: 6.8%
  WBC: 85 x10_2/uL
  KIDNEY_L: 1 g
  KIDNEY_R: 1 g
  KIDNEY_TOTAL: 2 g
  LIVER: 9.3 g
  A/G: 1.7
  ALP: 1027.6 IU/L
  ALT: 32.8 IU/L
  AST: 64.2 IU/L
  BUN: 12.2 mg/dL
  CRE: 0.4 mg/dL
  Ca: 10 mg/dL
  Cl: 103.6 meq/L
  DBIL: 0.07 mg/dL
  GLC: 205.6 mg/dL
  IP: 10.4 mg/dL
  K: 4 meq/L
  LDH: 163.2 IU/L
  Na: 141.2 meq/L
  PL: 112.8 mg/dL
  RALB: 3.4 g/dL
  TBIL: 0.1 mg/dL
  TC: 57.6 mg/dL
  TG: 24.4 mg/dL
  TP: 5.4 g/dL
  gamma-GTP: 1 IU/L
[8]
  TERMINAL_BW: 233.7 g
  APTT: 18.6 s
  Bas: 0.8%
  Eos: 1%
  Fbg: 216.6 mg/dL
  Hb: 13.1 g/dL
  Ht: 38.5%
  Lym: 78.8%
  MCH: 21.7 pg
  MCHC: 34%
  MCV: 64.1 fL
  Mono: 3.4%
  Neu: 15.6%
  PT: 12.3 s
  Plat: 122.8 x10_4/uL
  RBC: 601.6 x10_4/ul
  Ret: 6.4%
  WBC: 81.1 x10_2/uL
  KIDNEY_L: 1.1 g
  KIDNEY_R: 1.1 g
  KIDNEY_TOTAL: 2.2 g
  LIVER: 10.8 g
  A/G: 1.8
  ALP: 1101 IU/L
  ALT: 51.6 IU/L
  AST: 89.4 IU/L
  BUN: 13.2 mg/dL
  CRE: 0.4 mg/dL
  Ca: 10.3 mg/dL
  Cl: 103.6 meq/L
  DBIL: 0.076 mg/dL
  GLC: 203.4 mg/dL
  IP: 8.6 mg/dL
  K: 3.7 meq/L
  LDH: 203.6 IU/L
  Na: 141.6 meq/L
  PL: 106 mg/dL
  RALB: 3.6 g/dL
  TBIL: 0.1 mg/dL
  TC: 57.8 mg/dL
  TG: 29.2 mg/dL
  TP: 5.5 g/dL
  gamma-GTP: 1.8 IU/L
